In patent US20090203700A1, “Azolylmethyloxiranes, Their Use for Controlling Phytopathogenic Fungi, and Compositions Comprising Them” (BASF SE, priority 2006, published 2009):

Key:
Puccinia recondita = experiment: Protective activity against Puccinia recondita on wheat (brown rust of wheat) (Puccrt P1); assay type: in vivo; details: 250 ppm active compound, sprayed to runoff on potted wheat seedlings, inoculated next day; untreated plants 90% infected
Experimental: The active compounds were prepared separately or jointly as a stock solution comprising 25 mg of active compound which was made up to 10 ml using a mixture of acetone and/or DMSO and the emulsifier Wettol EM 31 (wetting agent having emulsifying and dispersing action based on ethoxylated alkylphenols) in a volume ratio of solvent/emulsifier of 99:1. The mixture was then made up to 100 ml with water. This stock solution was diluted with the solvent/emulsifier/water mixture described to give the concentration of active compound stated below. Leaves of potted wheat seedlings were sprayed to runoff point with an aqueous suspension having the active compound concentration stated below. The next day, the treated plants were inoculated with a spore suspension of brown rust of wheat (Puccinia recondita). The plants were then placed in a chamber with high atmospheric humidity (90 to 95%) at 20 to 22° C. for 24 hours. During this time, the spores germinated and the germ tubes penetrated into the leaf tissue. The next day, the test plants were returned to the greenhouse and cultivated at temperatures between 20 and 22° C. and at 65 to 70% relative atmospheric humidity for a further 7 days. The extent of the rust fungus development on the leaves was then determined visually.

Pyrenophora teres = experiment: Activity against net blotch of barley caused by Pyrenophora teres, 1 day protective application (Pyrnte P1); assay type: in vivo, Pyrenophora [syn. Drechslera] teres on barley; details: 250 ppm active compound, sprayed to runoff on potted barley seedlings, inoculated after 24 hours, assessed after 6 days; untreated plants 90% infected
Experimental: The active compounds were prepared separately or jointly as a stock solution comprising 25 mg of active compound which was made up to 10 ml using a mixture of acetone and/or DMSO and the emulsifier Wettol EM 31 (wetting agent having emulsifying and dispersing action based on ethoxylated alkylphenols) in a volume ratio of solvent/emulsifier of 99:1. The mixture was then made up to 100 ml with water. This stock solution was diluted with the solvent/emulsifier/water mixture described to give the concentration of active compound stated below. Leaves of potted barley seedlings were sprayed to runoff point with an aqueous suspension having the active compound concentration stated below. 24 hours after the spray coating had dried on, the test plants were inoculated with an aqueous spore suspension of Pyrenophora [syn. Drechslera] teres, the net blotch pathogen. The test plants were then placed in a greenhouse at temperatures between 20 and 24° C. and at 95 to 100% relative atmospheric humidity. After 6 days, the extent of the development of the disease was determined visually in % infection of the entire leaf area.

Question: How did the “infection (extent of rust fungus development on the leaves, determined visually)” value (Puccinia recondita) turn out when `Fc1ccc([C@@]2(Cn3cncn3)O[C@@H]2c2cccnc2Cl)cc1` (racemic) [3-{(2RS,3SR)-3-[(1H-1,2,4-triazol-1-yl)methyl]-3-[4-fluorophenyl]oxiran-2-yl}-2-chloropyridine] was run?
Answer: not more than 10%

Question: And the “infection (% infection of the entire leaf area, determined visually)” value (Pyrenophora teres)?
Answer: not more than 20%
